{
  "source": "paper PMC7562955",
  "about": "(Nature Communications, 2020)",
  "target": "T1, human TLR9 (Homo sapiens, UniProt Q9NR96)",
  "T1 construct": "host or cells: HEK293 (TLR9/NF-κB/SEAPorter)",
  "T1 sequence (Q9NR96 26-1032)": "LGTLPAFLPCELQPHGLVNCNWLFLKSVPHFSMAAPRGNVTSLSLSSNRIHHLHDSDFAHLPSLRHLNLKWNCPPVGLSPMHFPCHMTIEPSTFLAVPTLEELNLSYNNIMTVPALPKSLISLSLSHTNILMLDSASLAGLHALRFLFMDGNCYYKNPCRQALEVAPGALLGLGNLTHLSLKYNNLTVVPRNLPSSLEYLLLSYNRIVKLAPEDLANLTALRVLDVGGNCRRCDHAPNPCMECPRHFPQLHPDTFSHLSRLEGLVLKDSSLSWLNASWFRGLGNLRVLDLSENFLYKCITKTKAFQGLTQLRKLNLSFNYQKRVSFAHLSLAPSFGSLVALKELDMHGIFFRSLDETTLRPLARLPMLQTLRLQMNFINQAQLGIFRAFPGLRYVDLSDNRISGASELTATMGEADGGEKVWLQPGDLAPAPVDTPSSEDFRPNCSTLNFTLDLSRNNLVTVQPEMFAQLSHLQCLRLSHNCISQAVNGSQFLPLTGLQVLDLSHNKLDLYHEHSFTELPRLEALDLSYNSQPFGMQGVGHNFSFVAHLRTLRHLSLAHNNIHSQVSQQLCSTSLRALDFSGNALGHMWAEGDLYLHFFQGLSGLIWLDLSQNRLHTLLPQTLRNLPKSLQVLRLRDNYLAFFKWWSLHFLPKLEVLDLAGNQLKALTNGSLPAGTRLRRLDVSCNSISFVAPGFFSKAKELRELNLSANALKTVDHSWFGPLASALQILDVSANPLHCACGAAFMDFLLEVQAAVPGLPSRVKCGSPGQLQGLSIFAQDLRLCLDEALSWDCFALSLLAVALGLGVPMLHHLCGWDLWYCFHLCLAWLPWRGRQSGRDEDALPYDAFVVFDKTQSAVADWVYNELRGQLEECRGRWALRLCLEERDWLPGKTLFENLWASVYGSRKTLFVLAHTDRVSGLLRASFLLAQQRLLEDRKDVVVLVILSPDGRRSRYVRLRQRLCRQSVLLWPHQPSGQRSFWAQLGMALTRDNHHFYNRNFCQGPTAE",
  "assay": "Human TLR9 reporter gene inhibitory activity assay (NF-κB/SEAP HEK293)",
  "type": "cell-based",
  "details": "for human TLR9 activity, reporter signal: CpG2006 500 nM",
  "protocol": "Compounds were dissolved in dimethyl sulfoxide. Before stimulation with compound, Human TLR7 reporter cell line (TLR7/NF-κB/SEAPorter^TM HEK293 cell, Novus Biological, USA), human TLR8 reporter cell line (TLR8/NF-κB/SEAPorter^TM HEK293 cell, Novus Biological), and human TLR9 reporter cell line (TLR9/NF-κB/SEAPorter^TM HEK293 cell, Novus Biological) were seeded in 96-well microtiter plate (AGC techno glass, Japan) at 5 × 10^4 cells/well in DMEM (GIBCO, United Kingdam) with 10 % fetal bovine serum (GIBCO), and 10 ug/ml Blastcidin S HCl (GIBCO) and incubated at 37 °C in 5% CO2. The plates were incubated over-night and then stimulated with various concentrations of compound. […] After 30 min, R848 (human TLR7/8 ligand, synthesized at Sumitomo Dainippon Pharma, Japan) or CpG2006 (human TLR9 ligand, Hokkaido System Science Co., Ltd., Japan) added to each well, wherein each final concentration were adjusted to 200 nM R848 (human TLR7), 30 μM R848 (human TLR8), or 500 nM CpG2006 (human TLR9). The plates were then incubated an additional 20 ± 1 h at 37 °C in 5% CO2 and then the secreted embryonic alkaline phosphatase (SEAP) activity was measured as activation of human TLR7, 8, and 9. The SEAP activity was evaluated as follows: pNPP (Invitrogen, USA) was added to the incubated sample (50 μl/well); after 15 min, 4 M sodium hydroxide solution (nacalai tesque, Japan) was added thereto (50 μl/well) to quench the reaction; and the absorbance of each sample was measured at 405 nm with microplate reader SpectraMax M4 (Molecular Devices, USA).",
  "data": [
    {"smiles": "CCOc1nc(C)c2nc(-c3cncc(F)c3)n(Cc3ccc(CN4C[C@@H]5C[C@H]4CN5C)cc3)c2n1", "note": "[Cpd-7]", "values": [
      {"measurement": "human TLR9 activity, reporter signal", "setting": "compound 0.0001 nM (as headed)", "result": 0.3816},
      {"measurement": "human TLR9 activity, reporter signal", "setting": "compound 0.001 nM (as headed)", "result": 0.3944},
      {"measurement": "human TLR9 activity, reporter signal", "setting": "compound 0.003 nM (as headed)", "result": 0.4214},
      {"measurement": "human TLR9 activity, reporter signal", "setting": "compound 0.01 nM (as headed)", "result": 0.4209},
      {"measurement": "human TLR9 activity, reporter signal", "setting": "compound 0.03 nM (as headed)", "result": 0.4048},
      {"measurement": "human TLR9 activity, reporter signal", "setting": "compound 0.1 nM (as headed)", "result": 0.3963},
      {"measurement": "human TLR9 activity, reporter signal", "setting": "compound 0.3 nM (as headed)", "result": 0.3799},
      {"measurement": "human TLR9 activity, reporter signal", "setting": "compound 1 nM (as headed)", "result": 0.3655},
      {"measurement": "human TLR9 activity, reporter signal", "setting": "compound 3 nM (as headed)", "result": 0.3183},
      {"measurement": "human TLR9 activity, reporter signal", "setting": "compound 10 nM (as headed)", "result": 0.2034},
      {"measurement": "human TLR9 activity, reporter signal", "setting": "compound 30 nM (as headed)", "result": 0.05003},
      {"measurement": "human TLR9 activity, reporter signal", "setting": "compound 100 nM (as headed)", "result": -0.002975}
    ]},
    {"smiles": "CCCCOc1nc(N)c2nc(-c3cccnc3)n(Cc3ccccc3)c2n1", "note": "[Cpd-5]", "values": [
      {"measurement": "inhibition of TLR9", "result": "without causing any inhibition"},
      {"measurement": "human TLR9 activity, reporter signal", "setting": "compound 0.0001 nM (as headed)", "result": 0.3823},
      {"measurement": "human TLR9 activity, reporter signal", "setting": "compound 0.001 nM (as headed)", "result": 0.4021},
      {"measurement": "human TLR9 activity, reporter signal", "setting": "compound 0.003 nM (as headed)", "result": 0.4541},
      {"measurement": "human TLR9 activity, reporter signal", "setting": "compound 0.01 nM (as headed)", "result": 0.4157},
      {"measurement": "human TLR9 activity, reporter signal", "setting": "compound 0.03 nM (as headed)", "result": 0.4224},
      {"measurement": "human TLR9 activity, reporter signal", "setting": "compound 0.1 nM (as headed)", "result": 0.4068},
      {"measurement": "human TLR9 activity, reporter signal", "setting": "compound 0.3 nM (as headed)", "result": 0.4193},
      {"measurement": "human TLR9 activity, reporter signal", "setting": "compound 1 nM (as headed)", "result": 0.3613},
      {"measurement": "human TLR9 activity, reporter signal", "setting": "compound 3 nM (as headed)", "result": 0.3381},
      {"measurement": "human TLR9 activity, reporter signal", "setting": "compound 10 nM (as headed)", "result": 0.3129},
      {"measurement": "human TLR9 activity, reporter signal", "setting": "compound 30 nM (as headed)", "result": 0.2475},
      {"measurement": "human TLR9 activity, reporter signal", "setting": "compound 100 nM (as headed)", "result": 0.2357}
    ]},
    {"smiles": "CCN(CCO)CCCC(C)Nc1ccnc2cc(Cl)ccc12", "note": "(centres unmarked) [HCQ, hydroxychloroquine, reference compound]", "values": [
      {"measurement": "human TLR9 activity, reporter signal", "setting": "compound 0.0001 nM (as headed)", "result": 0.3549},
      {"measurement": "human TLR9 activity, reporter signal", "setting": "compound 0.01 nM (as headed)", "result": 0.3663},
      {"measurement": "human TLR9 activity, reporter signal", "setting": "compound 0.03 nM (as headed)", "result": 0.3271},
      {"measurement": "human TLR9 activity, reporter signal", "setting": "compound 0.1 nM (as headed)", "result": 0.2912},
      {"measurement": "human TLR9 activity, reporter signal", "setting": "compound 0.3 nM (as headed)", "result": 0.1984},
      {"measurement": "human TLR9 activity, reporter signal", "setting": "compound 1 nM (as headed)", "result": 0.0758},
      {"measurement": "human TLR9 activity, reporter signal", "setting": "compound 3 nM (as headed)", "result": 0.0184},
      {"measurement": "human TLR9 activity, reporter signal", "setting": "compound 10 nM (as headed)", "result": -0.013},
      {"measurement": "human TLR9 activity, reporter signal", "setting": "compound 30 nM (as headed)", "result": -0.01145},
      {"measurement": "human TLR9 activity, reporter signal", "setting": "compound 100 nM (as headed)", "result": -0.00085}
    ]},
    {"smiles": "CCOc1nc(N)c2nc(-c3cncc(F)c3)n(Cc3ccc(CN4C[C@@H]5C[C@H]4CN5C)cc3)c2n1", "note": "[Cpd-6]", "values": [
      {"measurement": "human TLR9 activity, reporter signal", "setting": "compound 0.0001 nM (as headed)", "result": 0.3816},
      {"measurement": "human TLR9 activity, reporter signal", "setting": "compound 0.001 nM (as headed)", "result": 0.371},
      {"measurement": "human TLR9 activity, reporter signal", "setting": "compound 0.003 nM (as headed)", "result": 0.3771},
      {"measurement": "human TLR9 activity, reporter signal", "setting": "compound 0.01 nM (as headed)", "result": 0.3689},
      {"measurement": "human TLR9 activity, reporter signal", "setting": "compound 0.03 nM (as headed)", "result": 0.3826},
      {"measurement": "human TLR9 activity, reporter signal", "setting": "compound 0.1 nM (as headed)", "result": 0.3836},
      {"measurement": "human TLR9 activity, reporter signal", "setting": "compound 0.3 nM (as headed)", "result": 0.372},
      {"measurement": "human TLR9 activity, reporter signal", "setting": "compound 1 nM (as headed)", "result": 0.3752},
      {"measurement": "human TLR9 activity, reporter signal", "setting": "compound 3 nM (as headed)", "result": 0.3176},
      {"measurement": "human TLR9 activity, reporter signal", "setting": "compound 10 nM (as headed)", "result": 0.265},
      {"measurement": "human TLR9 activity, reporter signal", "setting": "compound 30 nM (as headed)", "result": 0.06893},
      {"measurement": "human TLR9 activity, reporter signal", "setting": "compound 100 nM (as headed)", "result": 0.01837}
    ]}
  ]
}
